The values that follow come from ChEMBL document CHEMBL1159204, “Limonoids showing selective toxicity to DNA repair-deficient yeast and other constituents of Trichilia emetica” (J Nat Prod, 1998).

The subject of test [1] is Saccharomyces cerevisiae. Description: DNA damaging activity against RS 188N (RAD+) yeast assessed as drug level required to produce 12 mm zone of inhibition. It counts as functional.
Test [2] deals with Saccharomyces cerevisiae. Description: DNA damaging activity against DNA repair-deficient RS 322YK (rad 52Y) yeast assessed as drug level required to produce 12 mm zone of inhibition. Format: functional.
A further test concerns Vero. As to the kind of experiment: Cytotoxicity against african green monkey Vero cells. Format: cell-based. The following applies: Chlorocebus sabaeus.

Structures are written as SMILES. Converted amounts (≈) assume the structure as drawn.

For the compound `C=C1[C@@H]([C@@]2(C)[C@@H](OC(C)=O)C[C@@]3(O)OC[C@](C)(O3)[C@@H]2CC(=O)OC)[C@@H](OC=O)[C@H](OC(=O)C(O)C(C)CC)[C@@]2(C)[C@H](c3ccoc3)CC(=O)[C@]12O` (stereo not given in full), the IC12 in the test with Saccharomyces cerevisiae [1] came to 100 µg/mL; in the test with Saccharomyces cerevisiae [2], 0.9 µg/mL. Besides, the IC50 in the test on Vero amounted to 12 µg/mL (≈ 16.6 µM).
Take `CC[C@@]1(O)C(=O)OCc2c1cc1n(c2=O)Cc2cc3ccccc3nc2-1` [CAMPTOTHECIN]: the IC12 with Saccharomyces cerevisiae [1] is 110 µg/mL; with Saccharomyces cerevisiae [2] it was 0.6 µg/mL.
